Results from patent publication US5759789A, “Prostaglandin receptor EP2” (Merck Frosst Canada, Inc., priority 1996, dated 1998).
Entries after “also recorded” stand apart in the source; their conditions may differ. Where two headings read alike, the source gives them in different places. Each block holds one compound with its values, some of them ahead of it.

What was measured:
EP2 receptor [1] = target: T1, EP2 receptor (Homo sapiens, UniProt P35408); assay: [3H]PGE2 binding (competition) assay, membranes of COS-M6 cells transfected with EP2; set-up: full-length human EP2 cDNA was isolated; This 1.958 kb cDNA clone encodes a 488-amino acid protein; expressed in transfected cells; host or cells: COS-M6 cells (pcDNAIamp plasmid, DEAE-dextran), 100,000 x g membrane fraction; conditions: for rank order of potency for prostaglandins and related analogs / activity at EP2 in words: competition with [3H]PGE2
Experimental: The cells were maintained in culture for 72 h, then harvested and membranes prepared by differential centrifugation (1000×g for 10 min, then 100,000×g for 30 min) following lysis of the cells by nitrogen cavitation. […] Incubations were conducted for 45 min at 30° C. prior to separation of the bound and free radioligand by rapid filtration through Whatman GF/B filters presoaked at 4° C. in washing buffer ([…] MES/KOH (pH 6.0) containing 0.01% bovine serum albumin).

TP receptor = conditions: cited from earlier work
[2] = tested on: control oocytes (CFTR alone or CFTR plus antisense EP2 cDNA injected); assay: CFTR-mediated Cl- current in control oocytes (CFTR alone or CFTR plus antisense EP2 cDNA injected); assay type: cell-based, Xenopus laevis
EP2 receptor [3] = target: T1, EP2 receptor; assay: PGE2-induced CFTR-mediated Cl- current in Xenopus oocytes injected with EP2 plus CFTR cDNA; assay type: cell-based
Experimental: Oocytes were taken from adult females of Xenopus laevis using standard surgical procedure (Colman, A., 1984 In: Transcription and Translation--A Practical Approach, IRL Press). To remove follicle cells, oocytes were treated for 2-3 h with freshly made collagenase (2 mg/ml, type 2, Worthington Biochemical Corp., Freehold, N.J.) in Ca^2+ -free ND96 solution (ND96 in mM: NaCl 96, KCl 2, MgCl2 1, HEPES 5, Na-pyruvate 2.5, theophylline 0.5 gentamicin […], +1.8 CaCl2, pH 7.6). Defolliculated stage 5-6 oocytes were selected and maintained in ND96 solution. Oocyte nuclei were injected with 1.6 ng of pcDNAIamp-EP2 plus 2.5 ng of pcDNAIamp-CFTR and then incubated at 18° C. for 48 h before challenge with agonist. CFTR (cystic fibrosis transmembrane regulator, a cAMP dependent Cl^- channel) was co-expressed with EP2 receptor in these oocytes and served as a reporter of changes in intracellular cAMP levels. Functional activity was determined by measurement of PGE2-induced CFTR-mediated Cl^- current. An oocyte was placed in a 0.5 ml perfusion chamber and voltage clamped at -60 mV (with microelectrodes of 0.5-2.0 MW resistance filled with 3M KCl) using a Turbo TEC01C amplifier (NP1 Instruments, Germany). Ligand-containing solution was perfused and the current response was recorded.

IP receptor = conditions: cited from earlier work
EP2 receptor [4] = conditions: cited from earlier work
EP2 receptor [5] = conditions: cited from earlier work; remark: listed apart in the source
EP1 receptor = conditions: cited from earlier work
EP3 receptor = conditions: cited from earlier work
[6] = CFTR alone or CFTR plus antisense EP2 cDNA injected

T1 sequence (P35408 whole entry): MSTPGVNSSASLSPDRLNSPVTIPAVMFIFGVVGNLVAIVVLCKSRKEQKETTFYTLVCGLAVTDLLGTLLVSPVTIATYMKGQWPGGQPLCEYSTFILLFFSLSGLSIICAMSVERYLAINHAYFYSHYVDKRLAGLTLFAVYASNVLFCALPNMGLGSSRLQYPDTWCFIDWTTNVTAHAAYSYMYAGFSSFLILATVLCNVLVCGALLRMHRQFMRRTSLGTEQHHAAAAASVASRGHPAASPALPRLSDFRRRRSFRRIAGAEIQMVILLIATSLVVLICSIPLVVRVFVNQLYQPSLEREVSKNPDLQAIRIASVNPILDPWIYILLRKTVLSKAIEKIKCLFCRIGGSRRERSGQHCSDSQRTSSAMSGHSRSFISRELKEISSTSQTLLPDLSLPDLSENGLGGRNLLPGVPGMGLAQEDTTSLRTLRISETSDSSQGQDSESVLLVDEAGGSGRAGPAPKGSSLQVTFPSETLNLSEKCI

IC50 (EP2 receptor [1]; read-out: IC50): 6.03 µM
Structure (SMILES): CCCCC(C)(O)C/C=C/[C@H]1[C@H](O)CC(=O)[C@@H]1CCCCCCC(=O)OC (mixture of isomers) [Misoprostol]

Structure (SMILES): CCCCC[C@H](O)/C=C/[C@@H]1[C@@H](C/C=C\CCCC(=O)O)[C@H]2CO[C@@H]1C2 [U46619]
rank order of potency for prostaglandins and related analogs (EP2 receptor [1]): PGE2=PGE1>>phenyl-trinor PGE2>iloprost>PGF2α >PGD2≈U46619
potency at the TP receptor, stable thromboxane analog (TP receptor): comparable potency

current response compared with PGE2 (EP2 receptor [3]; 1 μM PGF2α): much smaller
Structure (SMILES): CCCCC[C@H](O)/C=C/[C@@H]1[C@@H](C/C=C\CCCC(=O)O)[C@@H](O)C[C@H]1O [PGF2α]
response of control oocytes [2, 6]: absent
rank order of potency for prostaglandins and related analogs (EP2 receptor [1]): PGE2=PGE1>>phenyl-trinor PGE2>iloprost>PGF2α >PGD2≈U46619

Structure (SMILES): CC#CCC(C)[C@H](O)/C=C/[C@@H]1[C@H]2C/C(=C/CCCC(=O)O)C[C@H]2C[C@H]1O (stereo partly drawn) [iloprost]
potency at the IP receptor, stable prostacyclin analog (IP receptor): comparable potency
rank order of potency for prostaglandins and related analogs (EP2 receptor [1]): PGE2=PGE1>>phenyl-trinor PGE2>iloprost>PGF2α >PGD2≈U46619

Structure (SMILES): CCCCC[C@H](O)/C=C/[C@H]1C(=O)C[C@H](O)[C@@H]1C/C=C\CCCC(=O)O [PGD2]
rank order of potency for prostaglandins and related analogs (EP2 receptor [1]): PGE2=PGE1>>phenyl-trinor PGE2>iloprost>PGF2α >PGD2≈U46619

potency at EP2 relative to EP3 (fold less potent at EP2 than EP3) (EP2 receptor [1]; EP2 versus EP3): approximately 30 fold
Structure (SMILES): O=C(O)CCCCCC[C@H]1C(=O)CC[C@@H]1/C=C/[C@@H](O)COc1ccccc1 [MB28767]

IC50 (EP2 receptor [1]; read-out: IC50 values in competition assays): 0.001 µM
Structure (SMILES): CCCCC[C@H](O)/C=C/[C@H]1[C@H](O)CC(=O)[C@@H]1CCCCCCC(=O)O [PGE1]
rank order of potency for prostaglandins and related analogs (EP2 receptor [1]): PGE2=PGE1>>phenyl-trinor PGE2>iloprost>PGF2α >PGD2≈U46619

activity at EP2 in words (EP2 receptor [1]): essentially inactive
Structure (SMILES): CC(C)Oc1ccc2c(=O)c3cc(C(=O)O)ccc3oc2c1 [AH6809]

Structure (SMILES): O=C(O)CCCC=CCC1C(=O)CC(O)C1C=CC(O)CCc1ccccc1 (stereo not drawn) [phenyl-trinor PGE2, 17-pheyyl-trinor PGE2]
rank order of potency for prostaglandins and related analogs (EP2 receptor [1]): PGE2=PGE1>>phenyl-trinor PGE2>iloprost>PGF2α >PGD2≈U46619

Structure (SMILES): CC(C)Cn1c(=O)n(C)c(=O)c2[nH]cnc21 [IBMX]
CFTR-mediated Cl- current ([2]; CFTR + anti-sense hEP2 cDNA injected oocytes): IBMX-induced, CFTR-mediated Cl^- current

Structure (SMILES): CCCCC[C@H](O)/C=C/[C@H]1[C@H](O)CC(=O)[C@@H]1C/C=C\CCCC(=O)O [PGE2, prostaglandin E2]
response of control oocytes ([2]; 1 μM, CFTR + anti-sense hEP2 cDNA): lack of response
response of control oocytes ([2]; 3 μM, CFTR + anti-sense hEP2 cDNA): lack of response
response of control oocytes [2, 6]: absent
current response (EP2 receptor [3]; perfusion of 1 nM, voltage clamp -60 mV, 1.6 ng EP2 plus 2.5 ng CFTR cDNA): inward cAMP-dependent Cl^- current; also recorded: prominent current responses
rank order of potency for prostaglandins and related analogs (EP2 receptor [1]): PGE2=PGE1>>phenyl-trinor PGE2>iloprost>PGF2α >PGD2≈U46619
intracellular cAMP levels (EP2 receptor [4]): increase in intracellular cAMP levels
affinity (EP2 receptor [5]): high affinity
affinity (EP1 receptor): high affinity
affinity (EP3 receptor): high affinity

activity at EP2 in words (EP2 receptor [1]): relatively inactive
IC50 (EP2 receptor [1]; read-out: IC50): 30 µM
Structure (SMILES): CCCC1([C@H](O)C/C=C/[C@H]2[C@H](O)CC(=O)[C@@H]2CCCCCCC(=O)OC)CCC1 [butaprost]

activity at EP2 in words (EP2 receptor [1]): essentially inactive
Structure (SMILES): CC(=O)NNC(=O)N1Cc2ccccc2Oc2ccc(Cl)cc21 [SC19220]
